# Literature values in US5998407A, “Inhibitors of farnesyl-protein transferase” (Merck & Co., Inc., priority 1998, dated 1999).
# Test system: farnesyl-protein transferase
# Details: via inhibition of HMG-CoA reductase
smiles,measurement,value
CC[C@H](C)C(=O)O[C@H]1CCC=C2C=C[C@H](C)[C@H](CC[C@@H]3C[C@@H](O)CC(=O)O3)[C@H]21 [compactin],Indirect inhibition of farnesyl-protein transferase in vivo,Indirect inhibition of farnesyl-protein transferase in vivo has been demonstrated
CC[C@H](C)C(=O)O[C@H]1C[C@@H](C)C=C2C=C[C@H](C)[C@H](CC[C@@H]3C[C@@H](O)CC(=O)O3)[C@H]21 [lovastatin],Indirect inhibition of farnesyl-protein transferase in vivo,Indirect inhibition of farnesyl-protein transferase in vivo has been demonstrated
